Experimental data reported in patent publication US10894798B2, “Substituted dihydropyrrolopyrazole derivative” (UBE INDUSTRIES, LTD., priority 2015, dated 2021).

How the values were obtained:
Format in all cases: cell-based
[1] = test system: ovary cancer cell line PA-1; test: Various human cancer cell growth inhibition test: PA-1; conditions: ATPlite, read-out: GI50 value (concentration necessary for inhibiting 50% of cell growth)
Text: (§1) A breast cancer cell line BT-549 (obtained from American Type Culture Collection (ATCC)), a uterus cancer cell line C-33A (obtained from ATCC), an ovary cancer cell line PA-1 (obtained from ATCC), a large-cell lung cancer cell line NCI-H460 (obtained from ATCC), a small-cell lung cancer cell line NCI-H82 (obtained from ATCC), a kidney cancer cell line ACHN (obtained from ATCC), a pancreatic cancer cell line BxPC-3 (obtained from ATCC), a malignant melanoma cell line A375 (obtained from ATCC), a throat cancer cell line FaDu (obtained from ATCC), a medulloblastoma cell line Daoy (obtained from ATCC), a cutaneous epithelioid sarcoma cell line VA-ES-BJ (obtained from ATCC), a rhabdomyosarcoma cell line A-204 (obtained from ATCC), a prostate cancer cell line DU145 (obtained from ATCC), a bladder cancer cell line T24 (obtained from ATCC), a lymphoma cell line SR (obtained from ATCC), a neuroblastoma cell line SH-SY5Y (obtained from DS Pharma Biomedical Co., Ltd.), a liver cancer cell line HepG2 (obtained from DS Pharma Biomedical Co., Ltd.), a stomach cancer cell line HGC-27 (obtained from DS Pharma Biomedical Co., Ltd.), and a multiple myeloma cell line NCI-H929 (obtained from DS Pharma Biomedical Co., Ltd.) were used as human cancer cell lines.
(§2) Each cell line was cultured in a cell culture medium recommended by ATCC or DS Pharma Biomedical Co., Ltd. and inoculated at 0.3 to 5.0×10^3 cells/well to a 96-well plate. The cells were cultured overnight in a carbon dioxide incubator of 37° C. containing 5% carbon dioxide. The medium was replaced with a fresh medium on the next day, then replaced with a mixed solution of a DMSO solution of a test compound with varying concentrations and a culture medium (final DMSO concentration: 0.1%), and left standing in a carbon dioxide incubator (day 0). IV-361, IV-379, IV-3, IV-215, IV-299, IV-669, IV-1049, and palbociclib (for comparison) were used as test compounds. For a control group, DMSO was added instead of the DMSO solution of the test compound to a cell culture medium (final DMSO concentration: 0.1%).
(§3) After culture for a predetermined period, the ATP activity of BT-549, C-33A, PA-1, NCI-H460, NCI-H82, ACHN, BxPC-3, A375, FaDu, Daoy, VA-ES-BJ, A-204, DU145, T24, and SR was measured by using ATPlite (manufactured by PerkinElmer, Inc.). The ATP activity of SH-SY5Y, HepG2, HGC-27, and NCI-H929 was measured by using CellTiter-Glo (manufactured by Promega Corp.).
(§4) The rate of inhibition of cell growth (%) was calculated according to the expression given below. Specifically, in the case where the difference between the ATP activity before culture (day 0) and the ATP activity after culture in the test compound-administered group is the same as the difference between the ATP activity before culture (day 0) and the ATP activity after culture in the control group, the rate of inhibition of cell growth is 0%. Rate of inhibition of cell growth=(1−((ATP activity of the test compound-administered group after culture)−(ATP activity of the test compound-administered group on day 0))/((ATP activity of the control group after culture)−(ATP activity of the control group on day 0)))×100
(§5) The concentration of the test compound necessary for inhibiting 50% of cell growth (GI50 value) was calculated by using EXSUS (version 8.1.0, manufactured by CAC Exicare Corp.).

[2] = test system: large-cell lung cancer cell line NCI-H460; test: Various human cancer cell growth inhibition test: NCI-H460; conditions: ATPlite, read-out: GI50 value (concentration necessary for inhibiting 50% of cell growth)
Text: as §1, §2, §3, §4, §5

[3] = test system: small-cell lung cancer cell line NCI-H82; test: Various human cancer cell growth inhibition test: NCI-H82; conditions: ATPlite, read-out: GI50 value (concentration necessary for inhibiting 50% of cell growth)
Text: as §1, §2, §3, §4, §5

[4] = test system: kidney cancer cell line ACHN; test: Various human cancer cell growth inhibition test: ACHN; conditions: ATPlite, read-out: GI50 value (concentration necessary for inhibiting 50% of cell growth)
Text: as §1, §2, §3, §4, §5

[5] = test system: pancreatic cancer cell line BxPC-3; test: Various human cancer cell growth inhibition test: BxPC-3; conditions: ATPlite, read-out: GI50 value (concentration necessary for inhibiting 50% of cell growth)
Text: as §1, §2, §3, §4, §5

[6] = test system: malignant melanoma cell line A375; test: Various human cancer cell growth inhibition test: A375; conditions: A-375, ATPlite, read-out: GI50 value (concentration necessary for inhibiting 50% of cell growth)
Text: as §1, §2, §3, §4, §5

[7] = test system: medulloblastoma cell line Daoy; test: Various human cancer cell growth inhibition test: Daoy; conditions: ATPlite, read-out: GI50 value (concentration necessary for inhibiting 50% of cell growth)
Text: as §1, §2, §3, §4, §5

[8] = test system: cutaneous epithelioid sarcoma cell line VA-ES-BJ; test: Various human cancer cell growth inhibition test: VA-ES-BJ; conditions: ATPlite, read-out: GI50 value (concentration necessary for inhibiting 50% of cell growth)
Text: as §1, §2, §3, §4, §5

[9] = test system: rhabdomyosarcoma cell line A-204; test: Various human cancer cell growth inhibition test: A-204; conditions: A204, ATPlite, read-out: GI50 value (concentration necessary for inhibiting 50% of cell growth)
Text: as §1, §2, §3, §4, §5

[10] = test system: prostate cancer cell line DU145; test: Various human cancer cell growth inhibition test: DU145; conditions: DU 145, ATPlite, read-out: GI50 value (concentration necessary for inhibiting 50% of cell growth)
Text: as §1, §2, §3, §4, §5

[11] = test system: bladder cancer cell line T24; test: Various human cancer cell growth inhibition test: T24; conditions: ATPlite, read-out: GI50 value (concentration necessary for inhibiting 50% of cell growth)
Text: as §1, §2, §3, §4, §5

[12] = test system: liver cancer cell line HepG2; test: Various human cancer cell growth inhibition test: HepG2; conditions: CellTiter-Glo, read-out: GI50 value (concentration necessary for inhibiting 50% of cell growth)
Text: as §1, §2, §3, §4, §5

[13] = test system: Human keratinocytes (NHEK-Neo Pooled); test: Human keratinocyte growth inhibition assay; conditions: 48 h, culture for 2 days, Cell Counting Kit-8
Method: The measurement of a human keratinocyte growth inhibitory effect was carried out by modifying the method of Schafer et al. (British Journal of Pharmacology, 159, 842 (2011)).
Human keratinocytes (NHEK-Neo Pooled, manufactured by Lonza Group AG) were cultured in KGM-Gold keratinocyte growth medium Bullet Kit (manufactured by Lonza Group AG) and inoculated at 2×10^3 cells/well to a 96-well plate. After overnight culture in a carbon dioxide incubator, a test compound dissolved in DMSO (final DMSO concentration: 0.1%) was added thereto and left standing in a carbon dioxide incubator. After culture for 2 days, the absorbance thereof was measured by using Cell Counting Kit-8 (manufactured by Dojindo Laboratories).
as §5, with “The rate of inhibition of cell growth at each concentration was calculated from the test compound concentration and the absorbance of Cell Counting Kit-8, and the” for “The”

Row | Compound | GI50 [1] | GI50 [2] | GI50 [3] | GI50 [4] | GI50 [5] | GI50 [6] | GI50 [7] | GI50 [8] | GI50 [9] | GI50 [10] | GI50 [11] | GI50 [12] | GI50 [13]
1 | CC1(C)c2[nH]nc(NC(=O)C3([Si](C)(C)C)CCC3)c2CN1C(=O)Nc1ccccc1F [IV-3, N-(2-Fluorophenyl)-6,6-dimethyl-3-[1-(trimethylsilyl)cyclobutanecarboxamido]-4,6-dihydropyrrolo[3,4-c]pyrazole-5(1H)-carboxamide] | < 300 nM | < 300 nM | < 300 nM | < 300 nM | < 300 nM | < 300 nM | < 300 nM | < 300 nM | < 300 nM | < 300 nM | < 300 nM | 300 to 1000 nM | –
2 | Cc1cccc(F)c1NC(=O)N1Cc2c(NC(=O)C3([Si](C)(C)C)CCC3)n[nH]c2C1(C)C [IV-129, N-(2-Fluoro-6-methylphenyl)-6,6-dimethyl-3-[1-(trimethylsilyl)cyclobutanecarboxamido]-4,6-dihydropyrrolo[3,4-c]pyrazole-5 (1H)-carboxamide] | – | – | – | – | – | – | – | – | – | – | – | – | ≤ 500 nM
3 | Cc1cccc(Cl)c1NC(=O)N1Cc2c(NC(=O)C3([Si](C)(C)C)CCC3)n[nH]c2C1(C)C [IV-215, N-(2-Chloro-6-methylphenyl)-6,6-dimethyl-3-[1-(trimethylsilyl)cyclobutanecarboxamido]-4,6-dihydropyrrolo[3,4-c]pyrazole-5 (1H)-carboxamide] | < 300 nM | < 300 nM | < 300 nM | < 300 nM | < 300 nM | < 300 nM | < 300 nM | < 300 nM | < 300 nM | < 300 nM | < 300 nM | < 300 nM | ≤ 500 nM
4 | COc1cccc(Cl)c1NC(=O)N1Cc2c(NC(=O)C3([Si](C)(C)C)CCC3)n[nH]c2C1(C)C [IV-247, N-(2-Chloro-6-methoxyphenyl)-6,6-dimethyl-3-[1-(trimethylsilyl)cyclobutanecarboxamido]-4,6-dihydropyrrolo[3,4-c]pyrazole-5(1H)-carboxamide] | – | – | – | – | – | – | – | – | – | – | – | – | ≤ 500 nM
5 | Cc1cccc(Br)c1NC(=O)N1Cc2c(NC(=O)C3([Si](C)(C)C)CCC3)n[nH]c2C1(C)C [IV-299, N-(2-Bromo-6-methylphenyl)-6,6-dimethyl-3-[1-(trimethylsilyl)cyclobutanecarboxamido]-4,6-dihydropyrrolo[3,4-c]pyrazole-5 (1H)-carboxamide] | < 300 nM | < 300 nM | < 300 nM | < 300 nM | < 300 nM | < 300 nM | < 300 nM | < 300 nM | < 300 nM | < 300 nM | < 300 nM | 300 to 1000 nM | –
6 | Cc1ccc(F)cc1NC(=O)N1Cc2c(NC(=O)C3([Si](C)(C)C)CCC3)n[nH]c2C1(C)C [IV-361, N-(5-Fluoro-2-methylphenyl)-6,6-dimethyl-3-[1-(trimethylsilyl)cyclobutanecarboxamido]-4,6-dihydropyrrolo[3,4-c]pyrazole-5 (1H)-carboxamide] | < 300 nM | < 300 nM | < 300 nM | < 300 nM | < 300 nM | < 300 nM | < 300 nM | < 300 nM | < 300 nM | < 300 nM | < 300 nM | 300 to 1000 nM | ≤ 500 nM
7 | Cc1ccc(C)c(NC(=O)N2Cc3c(NC(=O)C4([Si](C)(C)C)CCC4)n[nH]c3C2(C)C)c1 [IV-379, N-(2,5-Dimethylphenyl)-6,6-dimethyl-3-[1-(trimethylsilyl)cyclobutanecarboxamido]-4,6-dihydropyrrolo[3,4-c]pyrazole-5(1H)-carboxamide] | < 300 nM | < 300 nM | < 300 nM | < 300 nM | < 300 nM | < 300 nM | < 300 nM | < 300 nM | < 300 nM | < 300 nM | < 300 nM | < 300 nM | ≤ 500 nM
8 | Cc1ccc(C)c(NC(=O)N2Cc3c(NC(=O)C4([Si](C)(C)C)CCC4)n[nH]c3C2(C)C)c1F [IV-669, N-(2-Fluoro-3,6-dimethylphenyl)-6,6-dimethyl-3-[1-(trimethylsilyl)cyclobutanecarboxamido]-4,6-dihydropyrrolo[3,4-c]pyrazole-5(1H)-carboxamide] | < 300 nM | < 300 nM | < 300 nM | < 300 nM | < 300 nM | < 300 nM | < 300 nM | < 300 nM | < 300 nM | < 300 nM | < 300 nM | < 300 nM | –
9 | CC1(C)c2[nH]nc(NC(=O)C3([Si](C)(C)C)CCC3)c2CN1C(=O)Nc1c(F)ccc2ccoc12 [IV-1049, N-(6-Fluorobenzofuran-7-yl)-6,6-dimethyl-3-[1-(trimethylsilyl)cyclobutanecarboxamido]-4,6-dihydropyrrolo[3,4-c]pyrazole-5 (1H)-carboxamide] | < 300 nM | < 300 nM | < 300 nM | < 300 nM | < 300 nM | < 300 nM | < 300 nM | < 300 nM | < 300 nM | < 300 nM | < 300 nM | < 300 nM | –
